Data: article PMC6540285, “Evaluation of Protein Kinase Inhibitors with PLK4 Cross-Over Potential in a Pre-Clinical Model of Cancer” (International Journal of Molecular Sciences, 2019)

Experiments:
RT and MB cells = assay: Clonogenic colony formation assay; type: cell-based; conditions: 1µM
Method: All cell lines were seeded at 200 cells per well in six-well plates and incubated overnight. After 24 h, the treatment medium was added and changed once a week. Cells were treated with 0.01, 0.05, 0.1, 0.2, 0.5, 1, 5, and 10 µM of PLK4i and 0.1% DMSO as control. After 14 days, the cells were washed twice with 1x PBS, fixed with formalin, and stained with Cresyl violet (ACROS Organics, Pittsburgh, PA, USA). Colonies were counted using the ImageJ software (www.imagej.nih.gov, accessed on April 21, 2017).

ABL1 E255K = ABL1 E255K (Homo sapiens, UniProt P00519, E255K); assay: SelectScreen kinase profiling, ZLYTE; type: biochemical
ACVR2B = ACVR2B (Homo sapiens, UniProt Q13705); assay: SelectScreen kinase profiling, LanthaScreen binding
AKT2 (PKB beta) = AKT2 (PKB beta) (Homo sapiens, UniProt P31751); assay: SelectScreen kinase profiling, ZLYTE; type: biochemical
AMPK A2/B1/G1 = AMPK A2/B1/G1 (Homo sapiens, UniProt P54646); assay: SelectScreen kinase profiling, ZLYTE; type: biochemical; conditions: AMPK A2/B1/G1, 10 µM
BRSK1 (SAD1) = BRSK1 (SAD1) (Homo sapiens, UniProt Q8TDC3); assay: SelectScreen kinase profiling, ZLYTE; type: biochemical
CDC42 BPB (MRCKB) = CDC42 BPB (MRCKB) (Homo sapiens, UniProt Q9Y5S2); assay: SelectScreen kinase profiling, ZLYTE; type: biochemical
CDK9/cyclin T1 = CDK9/cyclin T1 (Homo sapiens, UniProt P50750); assay: SelectScreen kinase profiling, Adapta; type: biochemical; conditions: CDK9/cyclin T1, 10 µM
DNA-PK = DNA-PK (Homo sapiens, UniProt P78527); assay: SelectScreen kinase profiling, ZLYTE; type: biochemical
HIPK3 (YAK1) = HIPK3 (YAK1) (Homo sapiens, UniProt Q9H422); assay: SelectScreen kinase profiling, ZLYTE; type: biochemical
JAK3 = JAK3 (Homo sapiens, UniProt P52333); assay: SelectScreen kinase profiling, ZLYTE; type: biochemical; conditions: JAK3, 10 µM
KIT D820E = KIT D820E (Homo sapiens, UniProt P10721, D820E); assay: SelectScreen kinase profiling, LanthaScreen binding
LTK (TYK1) = LTK (TYK1) (Homo sapiens, UniProt P29376); assay: SelectScreen kinase profiling, ZLYTE; type: biochemical
[1] = target: MAP3K7/MAP3K7IP1 (TAK1-TAB1) (Homo sapiens, UniProt O43318); assay: SelectScreen kinase profiling, LanthaScreen binding
MASTL = MASTL (Homo sapiens, UniProt Q96GX5); assay: as above
MATK (HYL) = MATK (HYL) (Homo sapiens, UniProt P42679); assay: SelectScreen kinase profiling, ZLYTE; type: biochemical
MYLK4 = MYLK4 (Homo sapiens, UniProt Q86YV6); assay: SelectScreen kinase profiling, LanthaScreen binding; conditions: MYLK4, 10 µM
NTRK2 (TRKB) = NTRK2 (TRKB) (Homo sapiens, UniProt Q16620); assay: SelectScreen kinase profiling, ZLYTE; type: biochemical
PRKCQ (PKC theta) = PRKCQ (PKC theta) (Homo sapiens, UniProt Q04759); assay: SelectScreen kinase profiling, ZLYTE; type: biochemical
RET A883F = RET A883F (Homo sapiens, UniProt P07949, A883F); assay: SelectScreen kinase profiling, ZLYTE; type: biochemical
RPS6KA1 (RSK1) = RPS6KA1 (RSK1) (Homo sapiens, UniProt Q15418); assay: SelectScreen kinase profiling, ZLYTE; type: biochemical
STK24 (MST3) = STK24 (MST3) (Homo sapiens, UniProt Q9Y6E0); assay: SelectScreen kinase profiling, ZLYTE; type: biochemical
From the text: (§1) Kinase Technology % Inhibition Avg Kinase Technology % Inhibition Avg […]

STK25 (YSK1) = STK25 (YSK1) (Homo sapiens, UniProt O00506); assay: SelectScreen kinase profiling, ZLYTE; type: biochemical
From the text: as §1

STK3 (MST2) = STK3 (MST2) (Homo sapiens, UniProt Q13188); assay: SelectScreen kinase profiling, ZLYTE; type: biochemical
From the text: as §1

STK4 (MST1) = STK4 (MST1) (Homo sapiens, UniProt Q13043); assay: SelectScreen kinase profiling, ZLYTE; type: biochemical
From the text: as §1

SYK = SYK (Homo sapiens, UniProt P43405); assay: SelectScreen kinase profiling, ZLYTE; type: biochemical
From the text: as §1

TAOK2 (TAO1) = TAOK2 (TAO1) (Homo sapiens, UniProt Q9UL54); assay: SelectScreen kinase profiling, ZLYTE; type: biochemical
From the text: as §1

TBK1 = TBK1 (Homo sapiens, UniProt Q9UHD2); assay: SelectScreen kinase profiling, ZLYTE; type: biochemical; conditions: TBK1, 10 µM
From the text: as §1

TEK (TIE2) Y897S = TEK (TIE2) Y897S (Homo sapiens, UniProt Q02763, Y897S); assay: SelectScreen kinase profiling, ZLYTE; type: biochemical
From the text: as §1

TEK (Tie2) = TEK (Tie2) (Homo sapiens, UniProt Q02763); assay: SelectScreen kinase profiling, ZLYTE; type: biochemical
From the text: as §1

TNK1 = TNK1 (Homo sapiens, UniProt Q13470); assay: SelectScreen kinase profiling, ZLYTE; type: biochemical; conditions: TNK1, 10 µM
From the text: as §1

TXK = TXK (Homo sapiens, UniProt P42681); assay: SelectScreen kinase profiling, ZLYTE; type: biochemical
From the text: as §1

TYK2 = TYK2 (Homo sapiens, UniProt P29597); assay: SelectScreen kinase profiling, ZLYTE; type: biochemical; conditions: TYK2, 10 µM
From the text: as §1

TYRO3 (RSE) = TYRO3 (RSE) (Homo sapiens, UniProt Q06418); assay: SelectScreen kinase profiling, ZLYTE; type: biochemical
From the text: as §1

TEK (TIE2) Y1108F = TEK (TIE2) Y1108F (Homo sapiens, UniProt Q02763, Y1108F); assay: SelectScreen kinase profiling, LanthaScreen binding
P450 3A5 = P450 3A5 (Homo sapiens, UniProt P20815); assay: SelectScreen P450 Vivid biochemical assay; conditions: 10000nM
P450 3A5, sequence (P20815 whole entry): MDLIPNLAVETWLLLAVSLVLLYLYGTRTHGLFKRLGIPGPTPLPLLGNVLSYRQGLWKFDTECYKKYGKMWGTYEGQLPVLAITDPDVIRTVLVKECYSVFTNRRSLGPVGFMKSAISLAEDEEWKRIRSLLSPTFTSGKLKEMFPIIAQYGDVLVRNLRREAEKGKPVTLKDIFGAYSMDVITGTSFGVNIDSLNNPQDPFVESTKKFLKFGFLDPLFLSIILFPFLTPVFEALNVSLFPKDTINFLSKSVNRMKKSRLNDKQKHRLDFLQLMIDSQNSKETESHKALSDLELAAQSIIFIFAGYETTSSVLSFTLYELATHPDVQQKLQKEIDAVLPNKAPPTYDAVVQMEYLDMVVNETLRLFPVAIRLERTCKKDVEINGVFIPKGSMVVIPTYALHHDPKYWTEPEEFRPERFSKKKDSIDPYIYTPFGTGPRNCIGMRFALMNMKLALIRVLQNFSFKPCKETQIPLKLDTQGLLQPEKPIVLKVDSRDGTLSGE

TBK1, sequence (Q9UHD2 whole entry): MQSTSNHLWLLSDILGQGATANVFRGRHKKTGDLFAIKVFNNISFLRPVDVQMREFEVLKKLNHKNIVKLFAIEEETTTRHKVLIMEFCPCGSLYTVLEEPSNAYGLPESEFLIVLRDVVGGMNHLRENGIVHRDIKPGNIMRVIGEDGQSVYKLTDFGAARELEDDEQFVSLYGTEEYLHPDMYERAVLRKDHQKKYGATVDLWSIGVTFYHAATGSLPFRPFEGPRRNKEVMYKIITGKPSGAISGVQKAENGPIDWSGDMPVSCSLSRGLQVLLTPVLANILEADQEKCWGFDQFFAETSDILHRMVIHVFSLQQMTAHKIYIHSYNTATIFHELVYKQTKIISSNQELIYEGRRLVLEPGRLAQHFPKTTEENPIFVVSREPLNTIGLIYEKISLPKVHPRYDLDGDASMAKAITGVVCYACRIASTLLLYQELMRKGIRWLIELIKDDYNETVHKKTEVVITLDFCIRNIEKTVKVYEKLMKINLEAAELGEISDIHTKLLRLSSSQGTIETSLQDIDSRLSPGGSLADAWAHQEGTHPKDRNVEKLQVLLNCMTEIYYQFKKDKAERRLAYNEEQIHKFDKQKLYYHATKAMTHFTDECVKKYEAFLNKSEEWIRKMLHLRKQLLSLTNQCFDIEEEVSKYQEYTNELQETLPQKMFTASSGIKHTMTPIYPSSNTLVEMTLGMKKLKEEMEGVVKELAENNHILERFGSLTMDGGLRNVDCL
JAK3, sequence (P52333 whole entry): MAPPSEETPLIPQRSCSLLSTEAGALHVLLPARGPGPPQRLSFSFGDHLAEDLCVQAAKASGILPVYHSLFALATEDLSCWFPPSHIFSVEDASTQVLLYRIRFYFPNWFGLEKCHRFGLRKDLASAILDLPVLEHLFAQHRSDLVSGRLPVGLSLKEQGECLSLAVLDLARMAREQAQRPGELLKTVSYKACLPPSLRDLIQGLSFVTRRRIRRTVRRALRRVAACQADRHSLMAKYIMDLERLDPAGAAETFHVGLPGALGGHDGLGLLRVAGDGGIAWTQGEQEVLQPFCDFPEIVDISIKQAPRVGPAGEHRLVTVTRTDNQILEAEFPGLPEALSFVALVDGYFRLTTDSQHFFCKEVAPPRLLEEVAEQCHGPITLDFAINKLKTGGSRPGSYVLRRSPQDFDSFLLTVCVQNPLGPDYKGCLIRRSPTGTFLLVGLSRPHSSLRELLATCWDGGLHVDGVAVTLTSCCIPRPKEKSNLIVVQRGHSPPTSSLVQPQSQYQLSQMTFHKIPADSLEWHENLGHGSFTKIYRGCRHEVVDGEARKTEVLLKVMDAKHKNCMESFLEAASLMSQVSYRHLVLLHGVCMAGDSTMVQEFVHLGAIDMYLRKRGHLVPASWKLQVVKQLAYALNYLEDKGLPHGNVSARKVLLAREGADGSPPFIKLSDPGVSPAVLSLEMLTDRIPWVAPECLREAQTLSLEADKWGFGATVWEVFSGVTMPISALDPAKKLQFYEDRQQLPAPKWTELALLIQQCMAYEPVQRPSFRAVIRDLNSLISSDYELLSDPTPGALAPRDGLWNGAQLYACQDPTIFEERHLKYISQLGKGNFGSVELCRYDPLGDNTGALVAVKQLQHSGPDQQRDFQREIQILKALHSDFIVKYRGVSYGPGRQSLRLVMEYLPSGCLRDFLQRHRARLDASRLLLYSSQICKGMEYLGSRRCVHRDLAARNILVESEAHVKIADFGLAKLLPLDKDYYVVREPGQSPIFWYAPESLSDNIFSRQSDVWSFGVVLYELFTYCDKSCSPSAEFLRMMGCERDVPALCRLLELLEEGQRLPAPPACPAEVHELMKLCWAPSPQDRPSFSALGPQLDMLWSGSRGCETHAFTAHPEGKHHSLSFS
CDC42 BPB (MRCKB), sequence (Q9Y5S2 whole entry): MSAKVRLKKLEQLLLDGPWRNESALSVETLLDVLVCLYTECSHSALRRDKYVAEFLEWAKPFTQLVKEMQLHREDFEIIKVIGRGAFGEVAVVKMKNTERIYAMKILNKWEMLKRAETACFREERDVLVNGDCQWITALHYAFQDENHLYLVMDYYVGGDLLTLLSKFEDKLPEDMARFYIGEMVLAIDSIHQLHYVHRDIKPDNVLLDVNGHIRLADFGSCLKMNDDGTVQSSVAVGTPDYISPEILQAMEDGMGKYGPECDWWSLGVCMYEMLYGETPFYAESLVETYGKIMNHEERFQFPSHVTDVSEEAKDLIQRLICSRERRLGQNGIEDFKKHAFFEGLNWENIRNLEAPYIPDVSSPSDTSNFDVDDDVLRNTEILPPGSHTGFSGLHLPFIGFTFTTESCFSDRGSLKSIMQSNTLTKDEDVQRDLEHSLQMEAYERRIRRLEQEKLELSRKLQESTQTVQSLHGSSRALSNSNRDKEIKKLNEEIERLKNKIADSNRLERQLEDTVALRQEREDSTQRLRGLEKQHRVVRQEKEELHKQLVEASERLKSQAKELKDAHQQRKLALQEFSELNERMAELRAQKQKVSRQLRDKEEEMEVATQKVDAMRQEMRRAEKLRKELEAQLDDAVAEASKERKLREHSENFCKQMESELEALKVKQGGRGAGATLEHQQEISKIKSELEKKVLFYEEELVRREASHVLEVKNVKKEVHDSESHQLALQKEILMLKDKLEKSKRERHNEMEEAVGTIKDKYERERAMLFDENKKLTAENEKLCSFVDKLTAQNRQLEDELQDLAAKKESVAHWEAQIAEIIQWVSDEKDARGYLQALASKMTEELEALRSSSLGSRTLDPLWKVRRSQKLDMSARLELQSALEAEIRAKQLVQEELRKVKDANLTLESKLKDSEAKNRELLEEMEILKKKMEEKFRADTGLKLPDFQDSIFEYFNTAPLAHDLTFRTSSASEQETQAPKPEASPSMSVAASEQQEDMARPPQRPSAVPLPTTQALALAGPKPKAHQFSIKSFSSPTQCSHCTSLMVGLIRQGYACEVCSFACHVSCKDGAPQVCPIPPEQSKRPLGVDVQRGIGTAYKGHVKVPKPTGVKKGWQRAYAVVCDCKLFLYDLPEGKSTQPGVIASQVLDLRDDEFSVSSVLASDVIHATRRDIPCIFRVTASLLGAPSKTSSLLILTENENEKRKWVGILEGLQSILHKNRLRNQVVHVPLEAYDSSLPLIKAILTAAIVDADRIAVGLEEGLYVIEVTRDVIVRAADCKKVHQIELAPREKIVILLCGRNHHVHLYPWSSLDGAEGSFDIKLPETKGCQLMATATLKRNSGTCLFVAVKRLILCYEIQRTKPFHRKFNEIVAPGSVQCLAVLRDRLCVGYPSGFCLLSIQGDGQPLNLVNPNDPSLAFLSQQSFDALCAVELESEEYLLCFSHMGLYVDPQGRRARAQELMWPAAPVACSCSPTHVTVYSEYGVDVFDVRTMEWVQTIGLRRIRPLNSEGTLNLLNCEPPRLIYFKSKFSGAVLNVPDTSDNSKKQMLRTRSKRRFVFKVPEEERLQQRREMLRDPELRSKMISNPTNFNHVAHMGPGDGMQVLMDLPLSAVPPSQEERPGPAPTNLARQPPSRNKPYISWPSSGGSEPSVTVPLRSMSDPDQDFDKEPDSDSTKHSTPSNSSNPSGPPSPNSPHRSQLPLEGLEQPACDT
RPS6KA1 (RSK1), sequence (Q15418 whole entry): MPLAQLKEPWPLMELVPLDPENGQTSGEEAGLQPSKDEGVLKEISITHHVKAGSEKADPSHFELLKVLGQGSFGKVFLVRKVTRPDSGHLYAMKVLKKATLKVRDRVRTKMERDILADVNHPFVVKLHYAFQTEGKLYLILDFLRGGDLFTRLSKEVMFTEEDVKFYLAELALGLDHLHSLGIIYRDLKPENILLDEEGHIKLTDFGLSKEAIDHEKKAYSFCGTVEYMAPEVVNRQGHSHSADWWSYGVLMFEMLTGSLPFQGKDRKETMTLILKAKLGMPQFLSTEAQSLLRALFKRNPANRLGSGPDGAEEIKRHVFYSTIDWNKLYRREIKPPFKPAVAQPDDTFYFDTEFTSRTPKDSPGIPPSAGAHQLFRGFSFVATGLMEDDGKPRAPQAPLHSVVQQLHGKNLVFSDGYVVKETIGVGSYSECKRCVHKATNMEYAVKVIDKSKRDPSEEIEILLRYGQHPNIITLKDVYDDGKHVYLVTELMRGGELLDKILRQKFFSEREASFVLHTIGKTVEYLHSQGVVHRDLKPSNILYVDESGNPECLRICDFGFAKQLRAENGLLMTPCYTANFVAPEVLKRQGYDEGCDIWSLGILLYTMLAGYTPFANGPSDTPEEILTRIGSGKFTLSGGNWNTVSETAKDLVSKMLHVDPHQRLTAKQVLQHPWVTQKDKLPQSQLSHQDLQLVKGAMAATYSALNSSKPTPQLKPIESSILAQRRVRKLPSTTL

## O=C(c1ccc(/C=C/c2n[nH]c3ccccc23)cc1)N1CCNCC1 [KW-2449]
RT and MB cells
  colony formation: complete inhibition of colony formation in all cell lines except the MB cell line DAOY
ABL1 E255K
  inhibition at 10 µM: 99%
ACVR2B
  inhibition at 10 µM: 94%
AKT2 (PKB beta)
  inhibition at 10 µM: 29%
AMPK A2/B1/G1
  inhibition at 10 µM: 99%
BRSK1 (SAD1)
  inhibition at 10 µM: 99%
CDC42 BPB (MRCKB)
  inhibition at 10 µM: 27%
CDK9/cyclin T1
  inhibition at 10 µM: 82%
DNA-PK
  inhibition at 10 µM: 24%
HIPK3 (YAK1)
  inhibition at 10 µM: 53%
JAK3
  inhibition at 10 µM: 98%
KIT D820E
  inhibition at 10 µM: 81%
LTK (TYK1)
  inhibition at 10 µM: 90%
[1]
  inhibition at 10 µM: 26%
MASTL
  inhibition at 10 µM: 83%
MATK (HYL)
  inhibition at 10 µM: 37%
MYLK4
  inhibition at 10 µM: 71%
NTRK2 (TRKB)
  inhibition at 10 µM: 99%
PRKCQ (PKC theta)
  inhibition at 10 µM: 32%
RET A883F
  inhibition at 10 µM: 99%
RPS6KA1 (RSK1)
  inhibition at 10 µM: 94%
STK24 (MST3)
  inhibition at 10 µM: 85%
STK25 (YSK1)
  inhibition at 10 µM: 45%
STK3 (MST2)
  inhibition at 10 µM: 77%
STK4 (MST1)
  inhibition at 10 µM: 93%
SYK
  inhibition at 10 µM: 98%
TAOK2 (TAO1)
  inhibition at 10 µM: 87%
TBK1
  inhibition at 10 µM: 99%
TEK (TIE2) Y897S
  inhibition at 10 µM: 80%
TEK (Tie2)
  inhibition at 10 µM: 99%
TNK1
  inhibition at 10 µM: 94%
TXK
  inhibition at 10 µM: 94%
TYK2
  inhibition at 10 µM: 99%
TYRO3 (RSE)
  inhibition at 10 µM: 92%
TEK (TIE2) Y1108F
  inhibition at 10 µM: 72%
P450 3A5; substrate BOMCC
  % Inhibition 3A5 BOMCC: 14%
P450 3A5; substrate DBOMF
  % Inhibition 3A5 DBOMF: 10%
